Test system: 633275-114-R-J1-PDC complex spheroids, viability
Assay: Anticancer human tumor 633275-114-R-J1-PDC patient-derived endometrial adenocarcinoma cell line growth inhibition [GQUAD]
Details: for IC50: curve of first compound; for viability, T/C: stronger effect = lower value
Text: DNA G-quadruplex Stabilizer Agents in Combinations in Complex Spheroids
A high-throughput screen of multi-cell type tumor spheroids was designed to identify active combinations of DNA G-quadruplex stabilizer agents and targeted small molecules. Complex spheroids include a stromal component modeled by human endothelial cells (HUVEC) and fibroblasts modeled by human mesenchymal stem cells (MSCs). The concentration ranges selected for each drug and investigational agent were based upon clinically achievable concentrations if the clinical Cmax of the agent was known.
Compounds. The drugs and investigational agents: pidnarulex (CX-5461; NSC782164), APTO-253 (NSC789042), BRACO-19 (NSC847499), peposertib (NSC802822), ceralasertib (NSC780249), elimusertib (NSC800525), camonsertib (NSC841442), AZD-1390 (NSC803789), olaparib (NSC753686), talazoparib (NSC767125), ART-558 (NSC835418), sotorasib (NSC818433), MRTX-1133 (NSC836407), SN-38 (NSC673596), topotecan (NSC609699), etoposide (NSC141540), doxorubicin (NSC123127), gemcitabine (NSC613327), 5-fluorouracil (NSC19893), paclitaxel (NSC125973), vemurafenib (NSC761431), panobinostat (NSC761190), R-306465 (JNJ-16241199; NSC773264), adavosertib (NSC754352), TP-3654 (NSC805149), carboplatin (NSC241240), KSQ-4279 (NSC840948), and staurosporine (NSC755774) were obtained from the National Cancer Institute (NCI) Developmental Therapeutics Program Chemical Repository (34). The FDA-approved anticancer drug set is available from the NCI Developmental Therapeutics Program. […] The stock solutions were prepared in dimethyl sulfoxide (DMSO, Sigma-Aldrich, St. Louis, MO, cat. D2650) at 800-fold the tested concentration and stored at -70 degrees C prior to their use. All drugs and investigational agents were tested over a range starting from a high concentration at or near the clinical Cmax and decreasing in half-log increments. If the clinical Cmax for an agent had not been determined, the highest concentration tested was 10 microM.
2.3 Cell Culture. All cells were maintained in an incubator at 37 degrees C and 5% CO2 with 95% humidity. The PDC lines were cultured according to standard operating procedures established by the NCI PDMR. All PDCs were thawed and cultured in Matrigel-coated flasks prepared with a working solution of 1X Ham's F-12 nutrient mix, without supplementation (Invitrogen, cat. 11765054), 100 U/mL penicillin-streptomycin (Invitrogen, cat. 15140122), and 2.5% Matrigel (Corning Inc., cat. 354248) for the first three passages. The 857933-349-R-J2-PDC line was cultured in 6C/Colon 1B media, which includes advanced DMEM/F-12 (Thermo Fisher Scientific, cat. 12634028), 10 mM HEPES (Thermo Fisher Scientific, cat. 15630080), 1X GlutaMAX supplement (Thermo Fisher Scientific, cat. 35050061), 0.1 mg/mL primocin (InvivoGen, cat. ant-pm-2), 10% defined fetal bovine serum, heat inactivated (HyClone Laboratories Inc., cat. SH30070.03HI), 50% L-WRN conditioned media (ATCC, cat. CRL-3276), 1.25 mM N-Acetyl-L-cysteine (Sigma-Aldrich, cat. A9165), 10 mM nicotinamide (Sigma-Aldrich, cat. N0636), 1X B-27 supplement (Thermo Fisher Scientific, cat. 17504044), 1X N-2 supplement (Thermo Fisher Scientific, cat. 17502048), 10 microM Y-27632 dihydrochloride (Tocris Bioscience, cat. 1254), and 50 ng/mL human EGF recombinant protein (Thermo Fisher Scientific, cat. PHG0311). The 485176-168-R4-J1-PDC line was cultured in Panc media, which includes all 6C/Colon 1B media components plus 100 ng/mL human FGF-10 (Thermo Fisher Scientific, cat. 100-26), 500 nM SB-431542 (Selleckchem, cat. S1067), and gastrin (Tocris, cat. 3006).
[…]

[1] = second compound 0.0316 µM, first compound 0.0316 µM
[2] = second compound 0.0316 µM, first compound 0.1 µM
[3] = second compound 0.0316 µM, first compound 0.316 µM
[4] = second compound 0.0316 µM, first compound 1 µM
[5] = second compound 0.0316 µM, first compound 3.16 µM
[6] = second compound 0.0316 µM, first compound 10 µM
[7] = second compound 0.1 µM, first compound 0.0316 µM
[8] = second compound 0.1 µM, first compound 0.1 µM
[9] = second compound 0.1 µM, first compound 0.316 µM
[10] = second compound 0.1 µM, first compound 1 µM
[11] = second compound 0.1 µM, first compound 3.16 µM
[12] = second compound 0.1 µM, first compound 10 µM
[13] = second compound 0.316 µM, first compound 0.0316 µM
[14] = second compound 0.316 µM, first compound 0.1 µM
[15] = second compound 0.316 µM, first compound 0.316 µM
[16] = second compound 0.316 µM, first compound 1 µM
[17] = second compound 0.316 µM, first compound 3.16 µM
[18] = second compound 0.316 µM, first compound 10 µM
[19] = second compound 1 µM, first compound 0.0316 µM
[20] = second compound 1 µM, first compound 0.1 µM
[21] = second compound 1 µM, first compound 0.316 µM
[22] = second compound 1 µM, first compound 1 µM
[23] = second compound 1 µM, first compound 3.16 µM
[24] = second compound 1 µM, first compound 10 µM
[25] = second compound 3.16 µM, first compound 0.0316 µM
[26] = second compound 3.16 µM, first compound 0.1 µM
[27] = second compound 3.16 µM, first compound 0.316 µM
[28] = second compound 3.16 µM, first compound 1 µM
[29] = second compound 3.16 µM, first compound 3.16 µM
[30] = second compound 3.16 µM, first compound 10 µM
[31] = second compound 10 µM, first compound 0.0316 µM
[32] = second compound 10 µM, first compound 0.1 µM
[33] = second compound 10 µM, first compound 0.316 µM
[34] = second compound 10 µM, first compound 1 µM
[35] = second compound 10 µM, first compound 3.16 µM
[36] = second compound 10 µM, first compound 10 µM
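Also: spheroids exposed to the agents for seven days.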
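For viability, T/C in this document: percent of DMSO vehicle control viability which is 100%.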

CC1COCCN1c1cc(-c2ccnn2C)c2ccnc(-c3ccn[nH]3)c2n1 (stereo not drawn) + CN(C)c1ccc(Nc2c3ccc(NC(=O)CCN4CCCC4)cc3nc3cc(NC(=O)CCN4CCCC4)ccc23)cc1
IC50 (second compound 0.0316 µM): 136 nM
IC50 (second compound 0.1 µM): 163 nM
IC50 (second compound 0.316 µM): 175 nM
IC50 (second compound 1 µM): 144 nM
IC50 (second compound 3.16 µM): 90.5 nM
IC50 (second compound 10 µM): < 31.6 nM
viability, T/C [1]: 77%
viability, T/C [2]: 54.4%
viability, T/C [3]: 37.3%
viability, T/C [4]: 26.1%
viability, T/C [5]: 18%
viability, T/C [6]: 18.4%
viability, T/C [7]: 92.4%
viability, T/C [8]: 59.6%
viability, T/C [9]: 37.1%
viability, T/C [10]: 24.8%
viability, T/C [11]: 18.9%
viability, T/C [12]: 18.9%
viability, T/C [13]: 82.2%
viability, T/C [14]: 61.1%
viability, T/C [15]: 37.7%
viability, T/C [16]: 25.9%
viability, T/C [17]: 19.4%
viability, T/C [18]: 14.9%
viability, T/C [19]: 74.1%
viability, T/C [20]: 55.2%
viability, T/C [21]: 38.3%
viability, T/C [22]: 23.5%
viability, T/C [23]: 18.1%
viability, T/C [24]: 16.2%
viability, T/C [25]: 60.3%
viability, T/C [26]: 49.6%
viability, T/C [27]: 33.4%
viability, T/C [28]: 22.2%
viability, T/C [29]: 15.8%
viability, T/C [30]: 11.4%
viability, T/C [31]: 30.3%
viability, T/C [32]: 23.5%
viability, T/C [33]: 15.9%
viability, T/C [34]: 12.5%
viability, T/C [35]: 10.4%
viability, T/C [36]: 9.22%

CC1COCCN1c1cc(C2(O)CC3CCC(C2)O3)c2cnn(-c3ccn[nH]3)c2n1 (stereo not drawn) + CN(C)c1ccc(Nc2c3ccc(NC(=O)CCN4CCCC4)cc3nc3cc(NC(=O)CCN4CCCC4)ccc23)cc1
IC50 (second compound 0.0316 µM): 93.5 nM
IC50 (second compound 0.1 µM): 92.7 nM
IC50 (second compound 0.316 µM): 105 nM
IC50 (second compound 1 µM): 65.3 nM
IC50 (second compound 3.16 µM): 53.2 nM
IC50 (second compound 10 µM): < 31.6 nM
viability, T/C [1]: 73.6%
viability, T/C [2]: 48.9%
viability, T/C [3]: 28.7%
viability, T/C [4]: 18.4%
viability, T/C [5]: 13.6%
viability, T/C [6]: 9.33%
viability, T/C [7]: 79.9%
viability, T/C [8]: 46.5%
viability, T/C [9]: 30.2%
viability, T/C [10]: 19.8%
viability, T/C [11]: 15.4%
viability, T/C [12]: 9.07%
viability, T/C [13]: 70.7%
viability, T/C [14]: 50.7%
viability, T/C [15]: 33.1%
viability, T/C [16]: 19.2%
viability, T/C [17]: 15.8%
viability, T/C [18]: 10.4%
viability, T/C [19]: 62.7%
viability, T/C [20]: 41.7%
viability, T/C [21]: 30.4%
viability, T/C [22]: 19.8%
viability, T/C [23]: 14.4%
viability, T/C [24]: 9.06%
viability, T/C [25]: 58.8%
viability, T/C [26]: 39%
viability, T/C [27]: 26.7%
viability, T/C [28]: 15.3%
viability, T/C [29]: 12%
viability, T/C [30]: 8.3%
viability, T/C [31]: 29.2%
viability, T/C [32]: 23.9%
viability, T/C [33]: 17%
viability, T/C [34]: 10.9%
viability, T/C [35]: 8.55%
viability, T/C [36]: 4.92%

CC1COCCN1c1cc(C2(S(C)(=N)=O)CC2)nc(-c2ccnc3[nH]ccc23)n1 (stereo not drawn) + CN(C)c1ccc(Nc2c3ccc(NC(=O)CCN4CCCC4)cc3nc3cc(NC(=O)CCN4CCCC4)ccc23)cc1
IC50 (second compound 0.0316 µM): 3490 nM
IC50 (second compound 0.1 µM): 4430 nM
IC50 (second compound 0.316 µM): 3810 nM
IC50 (second compound 1 µM): 2780 nM
IC50 (second compound 3.16 µM): 3050 nM
IC50 (second compound 10 µM): < 31.6 nM
viability, T/C [1]: 101%
viability, T/C [2]: 103%
viability, T/C [3]: 103%
viability, T/C [4]: 74.2%
viability, T/C [5]: 54.6%
viability, T/C [6]: 34.9%
viability, T/C [7]: 115%
viability, T/C [8]: 96.1%
viability, T/C [9]: 97.1%
viability, T/C [10]: 84.6%
viability, T/C [11]: 53.1%
viability, T/C [12]: 34.5%
viability, T/C [13]: 109%
viability, T/C [14]: 94.7%
viability, T/C [15]: 101%
viability, T/C [16]: 82.9%
viability, T/C [17]: 52.8%
viability, T/C [18]: 35.4%
viability, T/C [19]: 98%
viability, T/C [20]: 87.8%
viability, T/C [21]: 95.4%
viability, T/C [22]: 70.1%
viability, T/C [23]: 49%
viability, T/C [24]: 33.7%
viability, T/C [25]: 86.3%
viability, T/C [26]: 85.1%
viability, T/C [27]: 84.4%
viability, T/C [28]: 66.9%
viability, T/C [29]: 50.7%
viability, T/C [30]: 32.8%
viability, T/C [31]: 37%
viability, T/C [32]: 38.2%
viability, T/C [33]: 36%
viability, T/C [34]: 32.6%
viability, T/C [35]: 28%
viability, T/C [36]: 19.9%

COc1ccc([C@@H](O)c2cc(-c3ncnc4cc(N5CCOCC5)ccc34)c(F)cc2Cl)nn1 + CN(C)c1ccc(Nc2c3ccc(NC(=O)CCN4CCCC4)cc3nc3cc(NC(=O)CCN4CCCC4)ccc23)cc1
IC50 (second compound 0.0316 µM): 4670 nM
IC50 (second compound 0.1 µM): 3730 nM
IC50 (second compound 0.316 µM): 2640 nM
IC50 (second compound 1 µM): 1710 nM
IC50 (second compound 3.16 µM): 938 nM
IC50 (second compound 10 µM): < 31.6 nM
viability, T/C [1]: 108%
viability, T/C [2]: 97.2%
viability, T/C [3]: 83.7%
viability, T/C [4]: 74.7%
viability, T/C [5]: 55.7%
viability, T/C [6]: 37.6%
viability, T/C [7]: 96%
viability, T/C [8]: 102%
viability, T/C [9]: 88.9%
viability, T/C [10]: 71.1%
viability, T/C [11]: 55.3%
viability, T/C [12]: 32.3%
viability, T/C [13]: 92.5%
viability, T/C [14]: 91.6%
viability, T/C [15]: 93.5%
viability, T/C [16]: 65.3%
viability, T/C [17]: 49.8%
viability, T/C [18]: 30.9%
viability, T/C [19]: 91.8%
viability, T/C [20]: 88%
viability, T/C [21]: 81.3%
viability, T/C [22]: 59.6%
viability, T/C [23]: 38.7%
viability, T/C [24]: 26.8%
viability, T/C [25]: 84.2%
viability, T/C [26]: 81.2%
viability, T/C [27]: 73.7%
viability, T/C [28]: 46.9%
viability, T/C [29]: 30.6%
viability, T/C [30]: 20.4%
viability, T/C [31]: 33.8%
viability, T/C [32]: 34.8%
viability, T/C [33]: 21.5%
viability, T/C [34]: 13.8%
viability, T/C [35]: 11.8%
viability, T/C [36]: 9.3%

Source: PubChem BioAssay AID2060505 (Molecular Pharmacology Branch, DTP, NCI, 2025)
